Results on 10 molecules are retold here after patent US10590153B2, “Process for producing crystalline DTPMP” (Zschimmer & Schwarz Mohsdorf GmbH & Co. KG, priority 2014, dated 2020).

Data set [1] in a line: Determination of the hygroscopicity (gravimetric water absorption in desiccator at constant humidity). It is filed as physicochemical. To be noted: 22±2° C., relative humidity of 55%; for Relative water absorption: determined daily over 12 days. As for the experimental part: In order to determine the hygroscopicity, solid samples were stored in 25 ml glass beakers in a desiccator under constant humidity. […] The water absorption of the samples was determined gravimetrically once daily over a period of 12 days as the difference in mass (see FIG. 14).
Two spray-dried powders were tested as comparison with crystallisate samples of the crystallisates of the α, β and γ crystal modification.
A DTPMP synthesis product having the quality parameters from Table 4 used as the starting slurry for the crystallisation was spray dried with a Büchi-Mini Spray Dryer B-290.

Data set [2] is described as follows: Bulk density of the samples used for the hygroscopicity test. It is filed as physicochemical.
For data set [3] the following is noted: about 55% humidity at 22° C.
Protocol: In a further test, the influence of the degree of neutralisation of the phosphonic acid DTPMP on the hygroscopicity was studied, on account of its industrial relevance, especially the sodium salts. To that end, 10 g of sample were stored in four crystallisation dishes of equal size in a desiccator under constant humidity. Via a saturated magnesium nitrate solution with precipitate (about ⅓ precipitate in ⅔ of the solution), about 55% by weight humidity is established at 22° C. The water absorption of the samples was determined gravimetrically twice daily over a period of 22 days as the difference in mass (see FIG. 15).
A crystallisate of the α crystal modification with a foreign acid content of 3.8% by weight chloride and in total 6.6% by weight H3PO4 and H3PO3 per 100% by mass DTPMP was dissolved again. Portions were neutralised with sodium hydroxide solution to pH (1% strength)=1.7 for the Na0.5-DTPMP salt, pH (1% strength)=2.1 for the Na3-DTPMP salt and pH (1% strength)=6.6 for the Na7-DTPMP salt.
A short description of data set [4]: Solubility of DTPMP at room temperature in dependence on the concentration of sodium ions and chloride ions. It is filed as physicochemical. To be noted: chloride ions in the range of from 1 to 4% by mass, room temperature (FIG. 13). The text has this: FIG. 13: Solubility of DTPMP at room temperature in dependence on the concentration of sodium ions and chloride ions in % by mass.

The nature of data set [5]: Drying behaviour of crystallisates in dependence on residual moisture and product purity (tempering in sealed vials, visual points classification). It is filed as physicochemical. Set-up: key: 5 points=sample unchanged; 4 points=sample compacted/started to dissolve; 3 points=sample visibly started to dissolve; 2 points=sample cloudy highly viscous solution; 1 point=sample dissolved to clear solution. To be noted: sealed vial, shaken. As for the experimental part: This dependency is shown by the following example for determining the drying behaviour of crystallisates in dependence on residual moisture and product purity.
A DTPMP solid isolated by recrystallisation is characterised by residues of adhering mother liquor via the quality parameters listed in the following table. Determination of the residual moisture content by means of a halogen dryer HB 43 S/Mettler Toledo is carried out isothermally at the indicated temperature using the shutoff criterion 4 (AK4=mean weight loss is <1 mg per 90 seconds):
After a purification step, which consists in suspending the solid in water and then separating it off by means of a filtering centrifuge, the following quality criteria are obtained:
The adhering residual moisture is removed stepwise from these solid samples in a rotary evaporator at 40° C. and 5 mbar vacuum, so that a series of samples with decreasing residual moisture content is prepared from each of the two purity grades (unwashed and washed).
4 ml borosilicate vials are filled with this sample material and the filling level is adjusted to ⅔ of the height of the glass by gentle tapping. In order to minimise evaporative losses, the screw cap of each vial is additionally sealed with a polyethylene film. All the samples are shaken in parallel in a tempering block on a heating and cooling shaker ThermoTwister comfort/Quantifoil Instruments GmbH for a defined period at a defined temperature and then assessed visually. Classification is made according to the following points system: […]

Setting [6] is: Temperature 35 °C, test duration 24 h.
Where [7] appears, read: Temperature 80 °C, test duration 5 h.
[8] abbreviates: Temperature 85 °C, test duration 5 h.
Setting [9] is: Temperature 90 °C, test duration 5 h.

`O=P(O)(O)CN(CCN(CP(=O)(O)O)CP(=O)(O)O)CCN(CP(=O)(O)O)CP(=O)(O)O` [Crystal form α, purified quality, diethylenetriamine penta(methylenephosphonic acid)]: the Relative water absorption in data set [1] amounted to 0.03 % by mass/day. Also, the “Hygroscopicity / water absorption capacity (in words)” value in data set [1] (listed as crystal modification α) is “consistently low water absorption”. In data set [2], this molecule gave a Bulk density of 0.36 g/mL.
In turn, `O=P(O)(O)CN(CCN(CP(=O)(O)O)CP(=O)(O)O)CCN(CP(=O)(O)O)CP(=O)(O)O` [Crystal form β, purified quality, diethylenetriamine penta(methylenephosphonic acid)] gave a Relative water absorption in data set [1] of 0.04 % by mass/day. Besides, the “Hygroscopicity / water absorption capacity (in words)” value in data set [1] (listed as crystal modification β) was “consistently low water absorption”. For the same molecule, in data set [2], the Bulk density was 0.49 g/mL.
On to `O=P(O)(O)CN(CCN(CP(=O)(O)O)CP(=O)(O)O)CCN(CP(=O)(O)O)CP(=O)(O)O` [Crystal form γ, purified quality, diethylenetriamine penta(methylenephosphonic acid)], for which, in data set [1], the “Hygroscopicity / water absorption capacity (in words)” value is “by far the lowest hygroscopicity” and the Relative water absorption worked out at 0.003 % by mass/day. The “Hygroscopicity / water absorption capacity (in words)” value in data set [1] (listed as crystal modification γ) is listed as “consistently low water absorption”. The Bulk density in data set [2] was determined as 0.59 g/mL.
With `O=P(O)(O)CN(CCN(CP(=O)(O)O)CP(=O)(O)O)CCN(CP(=O)(O)O)CP(=O)(O)O` [DTPMP acid, diethylenetriamine penta(methylenephosphonic acid)], the “Appearance of the sample after 22 days” value in data set [3] is “still recognisable”.
As to `O=P(O)(O)CN(CCN(CP(=O)(O)O)CP(=O)(O)O)CCN(CP(=O)(O)O)CP(=O)(O)O` [DTPMP, diethylenetriamine penta(methylenephosphonic acid)], the “Solubility of DTPMP (in words)” value in data set [4] was “further reduction in solubility”.
Consider `O=P([O-])([O-])CN(CCN(CCN(CP(=O)([O-])[O-])CP(=O)([O-])O)CP(=O)([O-])O)CP(=O)([O-])O.[Na+].[Na+].[Na+].[Na+].[Na+].[Na+].[Na+]` [Na7 salt], for which the “Appearance of the sample after 22 days” value in data set [3] is listed as “liquefied”. Moreover, the “Appearance of the sample after half the test time” value in data set [3] (after only half the test time (of 22 days)) is “visibly contracting to form a block”.
Molecule `O=P(O)(O)CN(CCN(CP(=O)(O)O)CP(=O)(O)O)CCN(CP(=O)(O)O)CP(=O)(O)O` [amorphous powder from spray drying of a DTPMP acid purified ] [reference compound] registered a Relative water absorption in data set [1] of 0.29 % by mass/day. The “Hygroscopicity / water absorption capacity (in words)” value in data set [1] (listed as DTPMP quality purified by recrystallisation and spray dried) is on record as “lower water absorption capacity than the unpurified crude product”. The Bulk density in data set [2] turned out to be 0.27 g/mL.
`O=P(O)(O)CN(CCN(CP(=O)(O)O)CP(=O)(O)O)CCN(CP(=O)(O)O)CP(=O)(O)O` [amorphous powder from spray drying of an unpurified DTPMP sy] [reference compound] registered a Relative water absorption in data set [1] of 0.40 % by mass/day. Moreover, in data set [1] (listed as Spray-dried powders of the unpurified DTPMP synthesis product), the “Hygroscopicity / water absorption capacity (in words)” value was “greatest hygroscopicity”. The molecule also came in with a Bulk density in data set [2] of 0.27 g/mL.
Consider `O=P(O)(O)CN(CCN(CP(=O)(O)O)CP(=O)(O)O)CCN(CP(=O)(O)O)CP(=O)(O)O` [washed quality 11 [% by mass] residual moisture], for which the “Visual classification at the end of the tempering step (points system)” value (“Visual classification at the end” for short) in data set [5] (setting [6]) turned out to be 5; in data set [5] (Temperature 40 °C, test duration 24 h), 5; in data set [5] (Temperature 45 °C, test duration 24 h) it was 5; in data set [5] (Temperature 50 °C, test duration 24 h), 5; in data set [5] (Temperature 55 °C, test duration 24 h) it was 5; in data set [5] (Temperature 60 °C, test duration 24 h), 5. For the same molecule, the “Visual classification at the end” value is on record as 5 in data set [5] (Temperature 65 °C, test duration 5 h); 5 in data set [5] (Temperature 70 °C, test duration 5 h); 5 in data set [5] (Temperature 75 °C, test duration 5 h); 5 in data set [5] (setting [7]); 5 in data set [5] (setting [8]); 5 in data set [5] (setting [9]).
In the case of `O=P(O)(O)CN(CCN(CP(=O)(O)O)CP(=O)(O)O)CCN(CP(=O)(O)O)CP(=O)(O)O` [washed quality 53 [% by mass] residual moisture], the “Visual classification at the end” value in data set [5] (setting [6]) stood at 5; in data set [5] (setting [7]), 1; in data set [5] (setting [8]) it was 1; in data set [5] (setting [9]), 1.
